# Measured values from patent US12528802B2, “Heterocyclic compound” (Takeda Pharmaceutical Company Limited, priority 2019, dated 2026).
# Biological target: T1, glucosylceramide synthase (Homo sapiens, UniProt Q16739)
# T1 construct: made in house; host or cells: Expi293F cells (transient expression, pcDNA3.3-TOPO vector); microsome fraction used as enzyme source
# T1 sequence (Q16739 1-394): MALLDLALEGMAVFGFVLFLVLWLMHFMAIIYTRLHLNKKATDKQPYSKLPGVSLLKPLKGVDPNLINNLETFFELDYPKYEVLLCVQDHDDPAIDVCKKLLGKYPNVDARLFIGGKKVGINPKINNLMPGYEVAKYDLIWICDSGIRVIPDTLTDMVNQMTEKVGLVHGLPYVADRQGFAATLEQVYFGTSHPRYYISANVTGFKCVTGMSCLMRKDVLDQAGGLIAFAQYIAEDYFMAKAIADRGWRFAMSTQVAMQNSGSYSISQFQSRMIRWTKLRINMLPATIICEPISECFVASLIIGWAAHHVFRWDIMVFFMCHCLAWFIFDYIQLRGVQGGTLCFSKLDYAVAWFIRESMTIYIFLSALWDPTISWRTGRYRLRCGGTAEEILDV
# Experiment: Glucosylceramide synthase (GCS) enzyme assay, microsome fraction, C8 glucosylceramide quantified by Rapidfire MS/MS
# Assay type: biochemical
# Settings: test compound 10 μM; 1.7 μM UDP-glucose, 3 μM C8 ceramide; room temperature 60 min; read-out: GCS enzyme inhibitory rate at 10 μM (%) (% of control)
# Summary of the method: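 Test compound, 10 μM final, was run against human GCS from transfected Expi293F microsome fractions, using substrate solution of 6 μM C8 ceramide (in DOPC liposomes) plus 3.4 μM UDP-glucose, pH 7.5 Tris buffer, 60 min, room temperature. Product C8 glucosylceramide measured by Rapidfire MS/MS against an internal standard, % inhibition referenced to no-enzyme and DMSO wells.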
row,inhibition at 10 µM,Structure (SMILES)
1,96%,"O=C1c2ccnc(-c3ccc(F)cc3OCC(F)(F)F)c2CN1c1ccc(C(O)C(F)(F)F)cc1 (racemic) [Example 251, rac-4-[4-fluoro-2-(2,2,2-trifluoroethoxy)phenyl]-2-[4-(2,2,2-trifluoro-1-hydroxyethyl)phenyl]-2,3-dihydro-1H-pyrrolo[3,4-c]pyridin-1-one]"
2,100%,"CC(C)n1cc2c(c(-c3ccccc3OCC(F)(F)F)c1=O)CN(c1ccc(OCC(C)(C)O)cc1)C2=O [Example 377, 2-[4-(2-hydroxy-2-methylpropoxy)phenyl]-5-(propan-2-yl)-7-[2-(2,2,2-trifluoroethoxy)phenyl]-1H-pyrrolo[3,4-c]pyridine-3,6(2H,5H)-dione]"
3,100%,"CC(C)(O)COc1ccc(N2Cc3c(ccnc3-c3ccccc3OCC(F)(F)F)C2=O)nc1 [Example 297, 2-[5-(2-hydroxy-2-methylpropoxy)pyridin-2-yl]-4-[2-(2,2,2-trifluoroethoxy)phenyl]-2,3-dihydro-1H-pyrrolo[3,4-c]pyridin-1-one]"
4,100%,"O=C1c2ccnc(-c3ccccc3OCC(F)(F)F)c2CN1c1ccc(OC(F)F)cn1 [Example 54, 2-[5-(difluoromethoxy)pyridin-2-yl]-4-[2-(2,2,2-trifluoroethoxy)phenyl]-2,3-dihydro-1H-pyrrolo[3,4-c]pyridin-1-one]"
5,96%,"O=C1c2ccnc(-c3ccccc3OC(F)F)c2CN1c1ccc(OC(F)F)cn1 [Example 64, 4-[2-(difluoromethoxy)phenyl]-2-[5-(difluoromethoxy)pyridin-2-yl]-2,3-dihydro-1H-pyrrolo[3,4-c]pyridin-1-one]"
6,100%,"CC(C)(O)c1cc2c(c(-c3ccccc3OCC(F)F)n1)CN(c1ccc(OCC(F)(F)F)cc1)C2=O [Example 354, 4-[2-(2,2-difluoroethoxy)phenyl]-6-(2-hydroxypropan-2-yl)-2-[4-(2,2,2-trifluoroethoxy)phenyl]-2,3-dihydro-1H-pyrrolo[3,4-c]pyridin-1-one]"
7,99%,"O=C1c2ccnc(-c3ccccc3OCC(F)(F)F)c2CN1c1ccc(F)cn1 [Example 51, 2-(5-fluoropyridin-2-yl)-4-[2-(2,2,2-trifluoroethoxy)phenyl]-2,3-dihydro-1H-pyrrolo[3,4-c]pyridin-1-one]"
8,99%,"Cc1cc2c(c(-c3ccccc3OCC(F)(F)F)n1)CN(c1ccc(OCC(C)(C)O)nc1)C2=O [Example 367, 2-[6-(2-hydroxy-2-methylpropoxy)pyridin-3-yl]-6-methyl-4-[2-(2,2,2-trifluoroethoxy)phenyl]-2,3-dihydro-1H-pyrrolo[3,4-c] pyridin-1-one]"
9,100%,"O=C1c2ccnc(-c3ccccc3OCC(F)(F)F)c2CN1c1ccc(C2(O)CC2)cc1 [Example 222, 2-[4-(1-hydroxycyclopropyl)phenyl]-4-[2-(2,2,2-trifluoroethoxy)phenyl]-2,3-dihydro-1H-pyrrolo[3,4-c]pyridin-1-one]"
10,95%,"CN(C)C(=O)c1ccc(N2Cc3c(ccnc3-c3ccccc3OCC(F)(F)F)C2=O)cc1 [Example 162, N,N-dimethyl-4-{1-oxo-4-[2-(2,2,2-trifluoroethoxy)phenyl]-1,3-dihydro-2H-pyrrolo[3,4-c]pyridin-2-yl}benzamide]"
11,96%,"CC(C)(O)c1ccc(N2Cc3c(ccnc3-c3ccncc3OCC(F)(F)F)C2=O)cc1F [Example 272, 2-[3-fluoro-4-(2-hydroxypropan-2-yl)phenyl]-4-[3-(2,2,2-trifluoroethoxy)pyridin-4-yl]-2,3-dihydro-1H-pyrrolo[3,4-c]pyridin-1-one]"
12,99%,"O=C1c2ccnc(-c3ccccc3OCC(F)(F)F)c2CN1c1ccc(C2(O)CC(F)(F)C2)nc1 [Example 316, 2-[6-(3,3-difluoro-1-hydroxycyclobutyl)pyridin-3-yl]-4-[2-(2,2,2-trifluoroethoxy)phenyl]-2,3-dihydro-1H-pyrrolo[3,4-c]pyridin-1-one]"
13,84%,"O=C1c2ccnc(-c3ccccc3OC(F)F)c2CN1c1ccc(F)cc1 [Example 28, 4-[2-(difluoromethoxy)phenyl]-2-(4-fluorophenyl)-2,3-dihydro-1H-pyrrolo[3,4-c]pyridin-1-one]"
14,87%,"O=C(c1ccc(N2Cc3c(ccnc3-c3ccc(F)cc3OCC(F)(F)F)C2=O)cc1)N1CCC1 [Example 166, 2-[4-(azetidine-1-carbonyl)phenyl]-4-[4-fluoro-2-(2,2,2-trifluoroethoxy)phenyl]-2,3-dihydro-1H-pyrrolo[3,4-c]pyridin-1-one]"
15,88%,"CC(=O)c1ccc(N2CC3=C(OC[C@H](C)N=C3c3ccccc3OCC(F)(F)F)C2=O)cc1 [Example 334, (3S)-7-(4-acetylphenyl)-3-methyl-5-[2-(2,2,2-trifluoroethoxy)phenyl]-2,3,6,7-tetrahydro-8H-pyrrolo [3,4-f][1,4]oxazepin-8-one]"
16,100%,"Cn1cc2c(c(-c3ccccc3OCC(F)(F)F)c1=O)CN(c1ccc(C(C)(C)O)cc1)C2=O [Example 321, 2-[4-(2-hydroxypropan-2-yl)phenyl]-5-methyl-7-[2-(2,2,2-trifluoroethoxy)phenyl]-1H-pyrrolo[3,4-c]pyridine-3,6(2H,5H)-dione]"
17,98%,"O=C1c2ccnc(-c3ccc(F)cc3OCC(F)(F)F)c2CN1c1ccc(OC2CCOCC2)nc1 [Example 167, 4-[4-fluoro-2-(2,2,2-trifluoroethoxy)phenyl]-2-{6-[(oxan-4-yl)oxy]pyridin-3-yl}-2,3-dihydro-1H-pyrrolo[3,4-c]pyridin-1-one]"
18,91%,"CC(C)(O)Cc1ccc(N2Cc3c(ccnc3-c3ccncc3OCC(F)(F)F)C2=O)cc1 [Example 307, 2-[4-(2-hydroxy-2-methylpropyl)phenyl]-4-[3-(2,2,2-trifluoroethoxy)pyridin-4-yl]-2,3-dihydro-1H-pyrrolo [3,4-c]pyridin-1-one]"
19,100%,"O=C1c2ccnc(-c3ccccc3OCC(F)(F)F)c2CN1c1ccc(O[C@H]2CCOC2)cc1 [Example 188, 2-(4-{[(3S)-oxolan-3-yl]oxy}phenyl)-4-[2-(2,2,2-trifluoroethoxy)phenyl]-2,3-dihydro-1H-pyrrolo[3,4-c]pyridin-1-one]"
20,94%,"COCc1ccc(N2Cc3c(ccnc3-c3ccc(F)cc3OCC(F)(F)F)C2=O)cc1 [Example 147, 4-[4-fluoro-2-(2,2,2-trifluoroethoxy)phenyl]-2-[4-(methoxymethyl)phenyl]-2,3-dihydro-1H-pyrrolo[3,4-c]pyridin-1-one]"
21,94%,"O=C1c2ccnc(-c3ccc(F)cc3OCC(F)(F)F)c2CN1c1cnc(OC(F)F)nc1 [Example 151, 2-[2-(difluoromethoxy)pyrimidin-5-yl]-4-[4-fluoro-2-(2,2,2-trifluoroethoxy)phenyl]-2,3-dihydro-1H-pyrrolo[3,4-c]pyridin-1-one]"
22,100%,"CC(O)c1cc2c(c(-c3ccccc3OCC(F)(F)F)n1)CN(c1ccc(OCC(F)(F)F)cc1)C2=O (racemic) [Example 341, rac-6-(1-hydroxyethyl)-4-[2-(2,2,2-trifluoroethoxy)phenyl]-2-[4-(2,2,2-trifluoroethoxy)phenyl]-2,3-dihydro-1H-pyrrolo[3,4-c]pyridin-1-one]"
23,100%,"O=C1c2ccnc(-c3ccccc3OCC(F)(F)F)c2CN1c1ccc(C2(O)CC2)cn1 [Example 265, 2-[5-(1-hydroxycyclopropyl)pyridin-2-yl]-4-[2-(2,2,2-trifluoroethoxy)phenyl]-2,3-dihydro-1H-pyrrolo[3,4-c]pyridin-1-one]"
24,99%,"O=C1c2ccnc(-c3ccc(F)cc3OCC(F)F)c2CN1c1ccc(C2(O)CCC2)cc1 [Example 267, 4-[2-(2,2-difluoroethoxy)-4-fluorophenyl]-2-[4-(1-hydroxycyclobutyl)phenyl]-2,3-dihydro-1H-pyrrolo[3,4-c]pyridin-1-one]"
25,100%,"O=C1c2ccnc(-c3ccccc3OCC(F)(F)F)c2CN1c1ccc(OC(F)(F)F)cn1 [Example 56, 4-[2-(2,2,2-trifluoroethoxy)phenyl]-2-[5-(trifluoromethoxy)pyridin-2-yl]-2,3-dihydro-1H-pyrrolo[3,4-c]pyridin-1-one]"
26,100%,"CC(C)(C)c1cc2c(c(-c3ccccc3OCC(F)(F)F)n1)CN(c1ccc(C(C)(C)O)cc1)C2=O [Example 389, 6-tert-butyl-2-[4-(2-hydroxypropan-2-yl)phenyl]-4-[2-(2,2,2-trifluoroethoxy)phenyl]-2,3-dihydro-1H-pyrrolo[3,4-c]pyridin-1-one]"
27,95%,"CC(C)(O)c1ccc(N2Cc3c(ncnc3-c3ccccc3OCC(F)(F)F)C2=O)cc1 [Example 200, 6-[4-(2-hydroxypropan-2-yl)phenyl]-4-[2-(2,2,2-trifluoroethoxy)phenyl]-5,6-dihydro-7H-pyrrolo[3,4-d]pyrimidin-7-one]"

row,Structure (SMILES),inhibition at 10 µM
1,"CC(C)(C)[Si](C)(C)OC1(c2ccc(N3Cc4c(ccnc4-c4ccccc4OCC(F)(F)F)C3=O)nc2)CC1 [Example 266, 2-[5-(1-{[tert-butyl(dimethyl)silyl]oxy}cyclopropyl)pyridin-2-yl]-4-[2-(2,2,2-trifluoroethoxy)phenyl]-2,3-dihydro-1H-pyrrolo[3,4-c]pyridin-1-one]",99%
